Values joined by “and” are separate entries in the source; they are usually repeats but may differ in a detail not shown here. Identical values can stand only once.
Key:
[1] = tested on: carrageenan induced paw edema; experiment: carrageenan-induced rat paw edema; type: in vivo; settings: for % Inhibition of Edema ± Standard Error / Mean Edema Thickness: 10 mg/kg indomethacin mol equivalent i.p.; for Mean Edema Thickness: ± standard error
hot plate latency = experiment: hot plate assay (central analgesic); type: in vivo, mice; settings: for % Protection / Latency Period ± SE: 10 mg/kg indomethacin mol equivalent i.p.; for Latency Period ± SE: cutoff 15 sec; for Potency: at 120 min compared to indomethacin
[2] = tested on: acetic acid-induced abdominal writhing; experiment: acetic acid-induced abdominal writhing assay (peripheral analgesic); type: in vivo, mice; settings: for % Inhibition/Protection / Writing Reflex ± SE: 10 mg/kg indomethacin mol equivalent i.p.; for Potency: % inhibition/protection compared to indomethacin; for Writing Reflex ± SE: number of writhing counted for 30 min
COX-2 = molecular target: T1, COX-2 (Homo sapiens, UniProt P35354); experiment: COX-2 inhibitor screening assay (fluorometric kit); type: biochemical; settings: for SI: SI = IC50 (COX-1)/IC50 (COX-2); for IC50: read-out: IC50, μM ± SD COX-2
T1 construct: purchased BioVision Incorporated K547-100 and K548-100
T1 sequence (P35354 18-604): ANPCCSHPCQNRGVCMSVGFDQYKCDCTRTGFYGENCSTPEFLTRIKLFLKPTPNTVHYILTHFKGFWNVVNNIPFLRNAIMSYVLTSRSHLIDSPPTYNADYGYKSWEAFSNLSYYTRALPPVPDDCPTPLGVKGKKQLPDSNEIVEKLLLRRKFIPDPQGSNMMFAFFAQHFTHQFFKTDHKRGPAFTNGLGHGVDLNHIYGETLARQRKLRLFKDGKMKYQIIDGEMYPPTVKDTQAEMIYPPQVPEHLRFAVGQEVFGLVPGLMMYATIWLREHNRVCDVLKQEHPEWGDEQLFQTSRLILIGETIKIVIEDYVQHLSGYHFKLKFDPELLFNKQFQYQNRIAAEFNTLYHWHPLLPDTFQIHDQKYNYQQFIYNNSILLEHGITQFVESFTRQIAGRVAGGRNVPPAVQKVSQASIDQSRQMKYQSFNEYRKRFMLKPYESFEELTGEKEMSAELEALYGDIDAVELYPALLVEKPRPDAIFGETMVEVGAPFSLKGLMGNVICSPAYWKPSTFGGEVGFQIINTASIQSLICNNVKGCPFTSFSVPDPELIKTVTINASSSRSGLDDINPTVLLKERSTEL
Experimental: the manufactor’s instructions.
The COX-1/2 inhibitor screening protocols can be summarized in following:
The test compound is dissolved in DMSO. Dilute to 10X the desired test concentration with COX-1 Assay Buffer before use. Add 10 μl diluted test inhibitor or Assay Buffer into assigned wells as sample screen [S] or Enzyme Control [EC] (no inhibitor) respectively. Add 2 μl of SC560 (in case […]
the wells as Inhibitor Control [IC].
Dilute COX Cofactor 200 times by adding 2 μl of COX Cofactor to 398 μl of COX Assay Buffer just before use. Mix well. Prepare Arachidonic Acid solution by adding 5 μl of supplied Arachidonic Acid to 5 μl of NaOH just before use. Vortex briefly to mix. Dilute Arachidonic Acid/NaOH solution 10 times by adding 90 μl ddH2O, vortex briefly to mix. Make as much as […]
For each well, prepare 80 μl of master mix as follows:
Diluted COX Cofactor 2 μl
Add 80 μl of Reaction Mix into each well. Use a multi -channel pipette to add 10 μl of diluted Arachidonic Acid/NaOH solution into each well to initiate all the reactions at the same time.
(T1 and T2) in the linear range of the plot and obtain the corresponding fluorescence values (RFU 1 […]
Calculate the slope for all samples, including Enzyme Control (EC), by dividing the net ΔRFU (RFU2 – RFU1) values by the time ΔT (T2 – T1). Calculate % Relative Inhibition as follows:
% Relative Inhibition = Slope of EC − Slope of S X 100

Row | Structure (SMILES) | % Inhibition of Edema ± Standard Error ([1]; 24 h) [%] | % Protection (hot plate latency; after 30 min) [%] | Latency Period ± SE (hot plate latency; after 30 min) [s] | % Protection (hot plate latency; after 60 min) [%] | Latency Period ± SE (hot plate latency; after 60 min) [s] | % Protection (hot plate latency; after 90 min) [%] | Latency Period ± SE (hot plate latency; after 90 min) [s] | % Protection (hot plate latency; after 120 min) [%] | Latency Period ± SE (hot plate latency; after 120 min) [s] | Potency (hot plate latency) | % Inhibition/Protection [2] [%] | Potency [2] [%] | Writing Reflex ± SE [2] | SI (COX-2) | IC50 (COX-2) [µM] | % Inhibition of Edema ± Standard Error ([1]; 4 h) [%] | other results
1 | Cc1ccc(-n2cc(COC(=O)C(C)c3ccc(CC(C)C)cc3)nn2)cc1 (stereo not shown) [Compound 5d, (1-(p-Tolyl)-1H-1,2,3-triazol-4-yl)methyl 2-(4-isobutylphenyl)propanoate] | 0.00 ± 1.7 | 65.0 | 11.02 ± 1.4 | 35.6 | 9.86 ± 0.7 | 20.0 | 10.69 ± 0.9 | 1.2 | 9.12 ± 1.1 | 2.1 | 82.5 | 114.9 | 7.0 ± 1.3 | 2.158 | 4.47 ± 0.13 |  | 
2 | COc1ccccc1-n1cc(COC(=O)C(C)c2ccc(CC(C)C)cc2)nn1 (stereo not shown) [Compound 5e, (1-(2-Methoxyphenyl)-1H-1,2,3-triazol-4-yl)methyl 2-(4-isobutylphenyl)propanoate] |  | 88.8 | 12.61 ± 2.1 | 44.8 | 10.53 ± 1.8 | 36.03 | 12.12 ± 1.7 |  | 11.53 ± 1.3 | 49.6 | 63.3 | 88.2 | 14.7 ± 1.6 | 0.387 | 14 ± 0.4 | 7.4 ± 1.8 | % Protection (hot plate latency; after 120 min, 10 mg/kg): 28%
3 | C#CCOC(=O)C(C)c1ccc(CC(C)C)cc1 (stereo not shown) [Compound 3, Prop-2-yn-1-yl 2-(4-isobutylphenyl) Propanoate] | 0.00 ± 0.3 | 55.2 | 10.37 ± 1.6 | 48.3 | 10.78 ± 2.1 | 19.2 | 10.62 ± 2.2 | 14.9 | 10.35 ± 1.7 | 26.4 | 71.8 | 100.0 | 11.3 ± 0.9 | 2.262 | 8.6 ± 0.24 | 33.7 ± 1.2 | % Inhibition of Edema ± Standard Error ([1]; 1 h): 15.8 ± 1.9%; Mean Edema Thickness ([1]; 1 h): 0.727 ± 0.05 mm; % Inhibition of Edema ± Standard Error ([1]; 2 h): 17.4 ± 0.9%; Mean Edema Thickness ([1]; 2 h): 0.589 ± 0.01 mm; % Inhibition of Edema ± Standard Error ([1]; 3 h, 10 mg/kg): 85.8% and 85.8 ± 1.1%; Mean Edema Thickness ([1]; 3 h): 0.103 ± 0.04 mm; Mean Edema Thickness ([1]; 4 h): 0.473 ± 0.03 mm; Mean Edema Thickness ([1]; 24 h): 0.920 ± 0.02 mm; % Potency ([1]; % inhibition of edema thickness relative to indomethacin at 3 h): 105.8%

From paper PMC9965125, “New NSAID Conjugates as Potent and Selective COX-2 Inhibitors: Synthesis, Molecular Modeling and Biological Investigation” (Molecules, 2023)
